Results: publication PMC12462173, “Evaluation of in vitro drug-drug interactions of ivermectin and antimalarial compounds” (Malaria Journal, 2025)
“And” between values parts separate entries of the source, which are not always exact repeats. Equal entries are not always repeated. “Also recorded” adds a separate entry of the source.

Assays:
[1] = enzymes that metabolize the drug; cited from earlier work
[2] = reported peak concentration in a patient population associated with standard dosing; cited from earlier work
[3] = system: pooled human liver microsomes; assay: In vitro metabolism of ivermectin in pooled human liver microsomes, alone and co-incubated with an antimalarial (CYP-mediated DDI)
Method: Pooled human liver microsomes (containing 20 mg/mL protein) were thawed on ice, and the reactions were conducted in a 96-well plate (1 mL, Agilent Technologies, Santa Clara, CA, USA). The assay buffer consisted of 0.1 M potassium phosphate buffer (pH 7.4). The premix solutions for each condition were prepared with specific volumes of each component, as outlined in Table S1. The premix solution was prepared by combining ivermectin, antimalarial drug, microsomes, and buffer. Three replicates of each premix solution were prepared, and 475 µL of each premix was transferred into separate wells of the 96-well plate. The plate was incubated at 37 °C for 5 min with gentle shaking (300 rpm). Following incubation, 25 µL of 20 mM NADPH was added to each well, and the solution was mixed thoroughly. The final incubation mixture (500 µL) contained a total microsome concentration of 0.53 mg/mL. To monitor the metabolism of ivermectin, 50 µL from each well was collected at 0, 15, 30, 45, 60, 90, 120, and 150 min and transferred to a new plate containing 200 µL of cold acetonitrile and 100 ng/mL of ivermectin-D2 (internal standard). The collection plate was kept on ice during sampling. After sample collection, the plate was sealed and centrifuged at 1,100 × g for 15 min at 4 °C. A 100 µL aliquot of the clear supernatant was transferred to a new plate for immediate LC–MS analysis.
The LC system consisted of an Agilent 1260 quaternary pump, an Agilent 1260 autosampler (set at 6 °C), and an Agilent 1290 column compartment (set at 40 °C). Five µL of sample was analysed on an Acquity UPLC HSS T3 reversed-phase column (2.1 × 100 mm, 1.8 μm) with a precolumn (2.1 × 5 mm, 1.8 μm) under a linear gradient. The mobile phase consisted of water with 10 mM ammonium acetate and 0.1% formic acid (A) and acetonitrile:water (95:5, v/v) with 10 mM ammonium acetate and 0.1% formic acid (B), at a flow rate of 0.3 mL/min. The gradient started at 75% B, ramped to 90% B over 2 min, held at 90% B for 4 min, and returned to 75% B in 0.1 min, with a 3.9-min re-equilibration. A Sciex TripleTOF 5600 + Q-TOF MS with DuoSpray ESI was used for LC–MS analysis in the positive mode, with source conditions set at 40 psi for ion source gas 1 (GS1) and gas 2 (GS2), 30 psi for curtain gas (CUR), 4,500 V for ion spray voltage floating (ISVF), 350 °C source temperature (TEM), and 120 V declustering potential (DP). Data were acquired from m/z 100–1,000 in TOF–MS scan mode using Analyst TF Software 1.8, and ivermectin quantification (ivermectin peak area/internal standard peak area) was performed with MultiQuant Software (Sciex, Framingham, MA, USA) with a high resolution TOF–MS scan mode.
The metabolism rate of ivermectin was evaluated based on the normalized peak area (%) of ivermectin over a total of 150 min of incubation. […] This normalized value was further adjusted relative to the pre-incubation ivermectin peak area (zero-minute sample) within a sample collection series, resulting in final ivermectin concentrations expressed as relative peak areas. All individual ivermectin concentrations (relative peak area) from triplicate incubations were fitted to an ordinary linear regression, separately conducted for ivermectin alone and ivermectin co-incubated with an antimalarial. The estimated (±95% CI) slope and intercept of the regression analysis was derived using GraphPad Prism v.10.4.2. Additionally, the slopes of the regression analyses were compared statistically between ivermectin alone and when co-incubation with an antimalarial, as an automated output from the regression analysis. Furthermore, the relative difference (%) in in vitro metabolism rate (i.e. difference between regression slopes) for ivermectin alone and when co-incubated with an antimalarial was calculated as shown in Eq. 1.

[4] = Rhesus macaques; cited from earlier work

SMILES	Metabolism pathway [1]	Reported Cmax (ng/ml) [2]	other results
CCN(CC)Cc1cc(Nc2ccnc3cc(Cl)ccc23)ccc1O [Amodiaquine]	Major CYP2C8; Minor CYP1A1, CYP1B1 [23, 28]	–	–
CO[C@H]1O[C@@H]2O[C@@]3(C)CC[C@H]4[C@H](C)CC[C@@H]([C@H]1C)[C@@]24OO3 [Artemether]	Major CYP2B6; Minor CYP3A4 [19, 20, 26]	186 [11] ng/ml	–
C[C@H]1[C@H](OC(=O)CCC(=O)O)O[C@@H]2O[C@@]3(C)CC[C@H]4[C@H](C)CC[C@@H]1[C@@]24OO3 [Artesunate]	–	244 [11] ng/ml	–
O=C1C(O)=C([C@H]2CC[C@H](c3ccc(Cl)cc3)CC2)C(=O)c2ccccc21 [Atovaquone]	Major CYP3A4; Minor CYP2C9 [21, 22]	13,300 [11] ng/ml	–
CCN(CC)CCCC(C)Nc1ccnc2cc(Cl)ccc12 (centres unmarked) [Chloroquine]	–	1430 [11] ng/ml	DDI effect on the in vitro metabolism rate of ivermectin (class in words) [3]: substantial; Exposure to ivermectin on co-administration [4]: increased exposure to ivermectin
C[C@H]1[C@@H](O)O[C@@H]2O[C@@]3(C)CC[C@H]4[C@H](C)CC[C@@H]1[C@@]24OO3 [Dihydroartemisinin]	Glucuronidation by UGT1A9 and UGT2B7 [29]	421 [3] ng/ml	–
CC[C@H](C)[C@H]1O[C@]2(CC[C@@H]1C)C[C@@H]1C[C@@H](C/C=C(\C)[C@@H](O[C@H]3C[C@H](OC)[C@@H](O[C@H]4C[C@H](OC)[C@@H](O)[C@H](C)O4)[C@H](C)O3)[C@@H](C)/C=C/C=C3\CO[C@@H]4[C@H](O)C(C)=C[C@@H](C(=O)O1)[C@]34O)O2 [Ivermectin]	primarily metabolized by CYP3A4 and to a lesser extent CYP3A5 and CYP2C8; also recorded: Major CYP3A4; Minor CYP3A5, CYP2C8 [31, 32]	119 [3] ng/ml	Intercept (95%CI) of linear regression of ivermectin relative peak area (%), ivermectin alone ([3]; ivermectin 1 µM alone, control run paired with the antimalarial of the same table line): 97.6 (95.4-99.9) and 96.1 (94.1-98.1) and 98.0 (96.7-99.2) and 97.7 (96.2-99.2) and 98.0 (96.6-99.4) and 100.1 (98.5-101.7) and 97.8 (95.9-99.8)
CCCCN(CCCC)CC(O)c1cc(Cl)cc2c1-c1ccc(Cl)cc1/C2=C/c1ccc(Cl)cc1 (centres unmarked) [Lumefantrine]	CYP3A4 [19, 20]	25,700 [11] ng/ml	–
OC(c1cc(C(F)(F)F)nc2c(C(F)(F)F)cccc12)C1CCCCN1 (centres unmarked) [Mefloquine]	–	2700 [11] ng/ml	DDI effect on the in vitro metabolism rate of ivermectin (class in words) [3]: substantial
Clc1ccc2c(N3CCN(CCCN4CCN(c5ccnc6cc(Cl)ccc56)CC4)CC3)ccnc2c1 [Piperaquine]	Major CYP3A4; Minor CYP2C8 [14]	568 [11] ng/ml	–
COc1cc(NC(C)CCCN)c2ncccc2c1 (centres unmarked) [Primaquine]	Major CYP2D6; Minor CYP1A2 [23, 30]	167 [11] ng/ml	–
[H]/N=C(\N/C(=N/[H])Nc1ccc(Cl)cc1)NC(C)C [Proguanil]	CYP2C19 [18]	750 [11] ng/ml	–
CCc1nc(N)nc(N)c1-c1ccc(Cl)cc1 [Pyrimethamine]	CYP1B1, CYP2C9 [23]	280 [11] ng/ml	DDI effect on the in vitro metabolism rate of ivermectin (class in words) [3]: little impact; Intercept (95%CI) of linear regression of ivermectin relative peak area (%), combination ([3]; human, pH 7.4): 96.7 (95.0-98.3); Slope (95%CI) of linear regression of ivermectin relative peak area (%) over time, combination ([3]; human, pH 7.4): -0.21 (-0.24 to -0.19)
COc1ccc2nc3cc(Cl)ccc3c(Nc3cc(CN4CCCC4)c(O)c(CN4CCCC4)c3)c2n1 [Pyronaridine]	CYP1A2, CYP2D6, CYP3A4 [24]	571 [12] ng/ml	–
COc1ncnc(NS(=O)(=O)c2ccc(N)cc2)c1OC [Sulfadoxine]	Acetylation by N-Acetyltransferase 2 [25]	130,000 [11] ng/ml	–
COc1cc(C)c2c(Oc3cccc(C(F)(F)F)c3)c(OC)cc(NC(C)CCCN)c2n1 (centres unmarked) [Tafenoquine]	CYP2D6 [27]	300 [13] ng/ml	–
